Data published in ChEMBL document CHEMBL4049442, “Design, Synthesis, and Biological Evaluation of Dimorpholine Substituted Thienopyrimidines as Potential Class I PI3K/mTOR Dual Inhibitors” (J Med Chem, 2017).
Activity calls are given as the source filed them. The calls are words filed in the database; no cut-off is given here.

Key:
U-87 MG [1] = assay: Antitumor activity against human U87MG cells xenografted in BALB/c nude mouse assessed as tumor growth inhibition administered po for 18 days measured every 3 days during compound dosing; format: functional, organism-based; details: U-87MG ATCC
[2] = target: PI3-kinase p110-alpha/p85-alpha (Homo sapiens, UniProt P42336); assay: Inhibition of full length recombinant human N-terminal His-tagged PI3K p110alpha/p85alpha expressed in baculovirus using PIP2 as substrate after 1 hr by kinase-glo luminescence assay
Sequence of PI3-kinase p110-alpha/p85-alpha (P27986 whole entry): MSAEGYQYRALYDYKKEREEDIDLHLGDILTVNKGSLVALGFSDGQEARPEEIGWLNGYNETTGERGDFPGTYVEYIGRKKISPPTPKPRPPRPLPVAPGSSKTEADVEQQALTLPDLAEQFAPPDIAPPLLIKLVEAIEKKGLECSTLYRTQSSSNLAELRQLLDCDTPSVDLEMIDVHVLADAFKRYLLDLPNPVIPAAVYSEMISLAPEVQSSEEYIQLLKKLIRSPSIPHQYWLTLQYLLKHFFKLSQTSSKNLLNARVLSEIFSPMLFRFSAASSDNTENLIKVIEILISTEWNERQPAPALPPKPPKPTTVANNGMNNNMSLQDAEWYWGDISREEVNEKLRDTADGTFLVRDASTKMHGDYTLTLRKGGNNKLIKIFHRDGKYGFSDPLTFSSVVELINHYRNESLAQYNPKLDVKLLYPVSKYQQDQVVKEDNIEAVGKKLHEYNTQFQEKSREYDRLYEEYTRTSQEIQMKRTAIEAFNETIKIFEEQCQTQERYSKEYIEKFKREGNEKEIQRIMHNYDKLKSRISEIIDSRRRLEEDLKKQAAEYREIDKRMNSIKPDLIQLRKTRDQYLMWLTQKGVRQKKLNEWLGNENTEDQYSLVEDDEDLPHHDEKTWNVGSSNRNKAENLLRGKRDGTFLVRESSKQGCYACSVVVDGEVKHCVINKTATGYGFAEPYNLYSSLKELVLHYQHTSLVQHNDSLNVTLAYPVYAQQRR
Sequence of PI3-kinase p110-alpha/p85-alpha (P42336 whole entry): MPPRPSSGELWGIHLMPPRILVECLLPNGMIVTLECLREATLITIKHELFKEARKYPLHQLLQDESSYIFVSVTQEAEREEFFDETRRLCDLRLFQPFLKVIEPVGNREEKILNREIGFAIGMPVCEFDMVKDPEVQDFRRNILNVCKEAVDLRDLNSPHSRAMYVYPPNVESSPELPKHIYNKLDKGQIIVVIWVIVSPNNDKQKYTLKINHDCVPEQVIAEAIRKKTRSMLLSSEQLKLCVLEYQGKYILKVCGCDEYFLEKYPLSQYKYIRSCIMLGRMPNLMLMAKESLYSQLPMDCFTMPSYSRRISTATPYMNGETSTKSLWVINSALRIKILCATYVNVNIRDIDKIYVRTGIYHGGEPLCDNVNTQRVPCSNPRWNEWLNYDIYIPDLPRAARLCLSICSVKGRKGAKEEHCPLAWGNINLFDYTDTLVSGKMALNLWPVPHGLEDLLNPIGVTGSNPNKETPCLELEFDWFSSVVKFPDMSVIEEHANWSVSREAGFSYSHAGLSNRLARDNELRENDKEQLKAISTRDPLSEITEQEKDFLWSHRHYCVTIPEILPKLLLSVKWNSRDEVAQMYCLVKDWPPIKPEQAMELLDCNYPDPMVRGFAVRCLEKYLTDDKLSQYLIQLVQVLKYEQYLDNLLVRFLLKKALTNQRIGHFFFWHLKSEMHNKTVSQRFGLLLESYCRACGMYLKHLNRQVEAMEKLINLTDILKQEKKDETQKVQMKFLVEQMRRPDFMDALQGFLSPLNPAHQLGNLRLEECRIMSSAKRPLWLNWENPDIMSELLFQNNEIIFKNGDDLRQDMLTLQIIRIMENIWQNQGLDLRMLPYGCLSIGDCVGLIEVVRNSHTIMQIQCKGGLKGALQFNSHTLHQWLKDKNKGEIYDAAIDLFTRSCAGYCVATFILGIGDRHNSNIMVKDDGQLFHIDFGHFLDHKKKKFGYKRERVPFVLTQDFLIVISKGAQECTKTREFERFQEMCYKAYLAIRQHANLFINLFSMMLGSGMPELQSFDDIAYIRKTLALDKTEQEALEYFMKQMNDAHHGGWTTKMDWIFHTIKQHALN

[3] = target: Serine/threonine-protein kinase mTOR (Homo sapiens, UniProt P42345); assay: Inhibition of recombinant human N-terminal FLAG-tagged mTOR (1362 to end residues) expressed in baculovirus infected Sf21 insect cells assessed as reduction in ULight-4E-BP1 phosphorylation after 30 mins by lance ultra assay
[4] = target: Phosphatidylinositol 4,5-bisphosphate 3-kinase catalytic subunit gamma isoform (Homo sapiens, UniProt P48736); assay: Inhibition of recombinant human His-tagged PI3K p110gamma expressed in baculovirus using PIP2 as substrate after 1 hr by kinase-glo luminescence assay
Sequence of Phosphatidylinositol 4,5-bisphosphate 3-kinase catalytic subunit gamma isoform (P48736 whole entry, canonical isoform): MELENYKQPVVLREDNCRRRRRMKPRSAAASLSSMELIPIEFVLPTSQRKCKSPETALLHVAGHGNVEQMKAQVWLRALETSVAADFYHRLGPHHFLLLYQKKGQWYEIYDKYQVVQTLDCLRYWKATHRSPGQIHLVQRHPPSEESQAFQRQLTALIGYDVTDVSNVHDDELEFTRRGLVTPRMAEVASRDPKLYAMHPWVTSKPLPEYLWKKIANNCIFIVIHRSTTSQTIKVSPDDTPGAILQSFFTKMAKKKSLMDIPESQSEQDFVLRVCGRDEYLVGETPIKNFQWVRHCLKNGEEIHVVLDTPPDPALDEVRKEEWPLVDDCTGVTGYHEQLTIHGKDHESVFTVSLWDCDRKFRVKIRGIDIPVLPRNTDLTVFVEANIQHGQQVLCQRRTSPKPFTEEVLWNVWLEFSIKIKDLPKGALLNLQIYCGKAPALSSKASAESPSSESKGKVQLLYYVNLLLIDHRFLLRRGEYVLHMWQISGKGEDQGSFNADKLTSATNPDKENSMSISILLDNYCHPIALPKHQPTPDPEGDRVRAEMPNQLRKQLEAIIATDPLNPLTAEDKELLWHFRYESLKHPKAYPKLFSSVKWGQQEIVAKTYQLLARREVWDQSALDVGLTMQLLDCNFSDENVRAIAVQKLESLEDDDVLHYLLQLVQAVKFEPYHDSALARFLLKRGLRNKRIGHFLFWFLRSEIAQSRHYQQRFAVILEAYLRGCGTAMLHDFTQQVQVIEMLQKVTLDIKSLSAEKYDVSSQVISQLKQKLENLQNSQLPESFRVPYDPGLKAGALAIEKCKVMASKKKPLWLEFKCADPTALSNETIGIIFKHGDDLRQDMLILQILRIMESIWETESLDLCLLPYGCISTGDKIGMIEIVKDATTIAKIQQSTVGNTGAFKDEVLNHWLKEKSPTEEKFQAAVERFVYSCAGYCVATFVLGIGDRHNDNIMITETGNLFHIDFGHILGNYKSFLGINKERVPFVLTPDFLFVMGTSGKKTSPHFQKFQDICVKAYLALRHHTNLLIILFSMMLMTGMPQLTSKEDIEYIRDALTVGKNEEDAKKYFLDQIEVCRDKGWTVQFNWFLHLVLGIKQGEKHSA

Homo sapiens [5] = species on record: Homo sapiens; assay: Inhibition of PI3K in human SKOV3 cells assessed as reduction in Akt phosphorylation at S473 after 24 hrs by Western blot analysis; format: cell-based
Homo sapiens [6] = species on record: Homo sapiens; assay: Inhibition of PI3K in human SKOV3 cells assessed as reduction in Akt phosphorylation at T308 after 24 hrs by Western blot analysis; format: cell-based
Homo sapiens [7] = species on record: Homo sapiens; assay: Inhibition of PI3K in human SKOV3 cells assessed as reduction in S6 phosphorylation after 24 hrs by Western blot analysis; format: cell-based
Homo sapiens [8] = species on record: Homo sapiens; assay: Inhibition of PI3K in human U87MG cells assessed as reduction in Akt phosphorylation at S473 after 24 hrs by Western blot analysis; format: cell-based
Homo sapiens [9] = species on record: Homo sapiens; assay: Inhibition of PI3K in human U87MG cells assessed as reduction in Akt phosphorylation at T308 after 24 hrs by Western blot analysis; format: cell-based
Homo sapiens [10] = species on record: Homo sapiens; assay: Inhibition of PI3K in human U87MG cells assessed as reduction in S6 phosphorylation after 24 hrs by Western blot analysis; format: cell-based
[11] = Clearance in Sprague-Dawley rat at 2 mg/kg, iv by LC-MS/MS analysis; format: ADME, organism-based; details: in vivo
[12] = Volume of distribution at steady state in Sprague-Dawley rat at 2 mg/kg, iv by LC-MS/MS analysis; format: ADME, organism-based; details: in vivo, read-out: Vdss
[13] = Cmax in Sprague-Dawley rat at 10 mg/kg, po by LC-MS/MS analysis; format: ADME, organism-based; parameters: dose 10 mg/kg, route oral; details: in vivo
[14] = AUC in Sprague-Dawley rat at 10 mg/kg, po by LC-MS/MS analysis; format: ADME, organism-based; details: in vivo
[15] = Oral bioavailability in Sprague-Dawley rat at 10 mg/kg by LC-MS/MS analysis; format: ADME, organism-based; details: in vivo
SK-OV-3 [16] = assay: Antitumor activity against human SKOV3 cells xenografted in BALB/c nude mouse assessed as tumor growth inhibition administered via po for 24 days measured every 3 days during compound dosing; format: functional, organism-based
SK-OV-3 [17] = assay: Antitumor activity against human SKOV3 cells xenografted in BALB/c nude mouse assessed as tumor growth inhibition at 60 mg/kg/day, po for 24 days measured every 3 days during compound dosing relative to control; format: functional; details: SK-OV-3, po, read-out: TGI
SK-OV-3 [18] = assay: Antitumor activity against human SKOV3 cells xenografted in BALB/c nude mouse assessed as tumor growth inhibition at 30 mg/kg/day, po for 24 days measured every 3 days during compound dosing relative to control; format: functional; details: SK-OV-3, po, read-out: TGI
SK-OV-3 [19] = assay: Antitumor activity against human SKOV3 cells xenografted in BALB/c nude mouse assessed as tumor growth inhibition at 15 mg/kg/day, po for 24 days measured every 3 days during compound dosing relative to control; format: functional; details: SK-OV-3, po, read-out: TGI
U-87 MG [20] = assay: Antitumor activity against human U87MG cells xenografted in BALB/c nude mouse assessed as tumor growth inhibition at 40 mg/kg/day, po for 18 days measured every 3 days during compound dosing relative to control; format: functional, U-87MG ATCC; details: read-out: TGI
U-87 MG [21] = assay: Antitumor activity against human U87MG cells xenografted in BALB/c nude mouse assessed as tumor growth inhibition at 20 mg/kg/day, po for 18 days measured every 3 days during compound dosing relative to control; format: functional, U-87MG ATCC; details: read-out: TGI
Mus musculus [22] = assay: Toxicity in BALB/c nude mouse xenografted with human SKOV3 cells assessed as body weight loss at 15 to 60 mg/kg/day, po for 24 days measured every 3 days during compound dosing; format: organism-based; details: in vivo
Mus musculus [23] = assay: Toxicity in BALB/c nude mouse xenografted with human U87MG cells assessed as body weight loss at 20 to 40 mg/kg/day, po for 18 days measured every 3 days during compound dosing; format: organism-based; details: in vivo
Mus musculus [24] = assay: In vivo inhibition of PI3K in BALB/c nude mouse xenografted with human SKOV3 cells assessed as reduction in Akt phosphorylation at S473 in tumors administered po for 24 days by immunohistochemical analysis; format: functional, organism-based
Mus musculus [25] = assay: In vivo inhibition of PI3K in BALB/c nude mouse xenografted with human SKOV3 cells assessed as reduction in S6RP phosphorylation at Ser235/236 administered po for 24 days in tumors by immunohistochemical analysis; format: functional, organism-based
SK-OV-3 [26] = assay: Antitumor activity against human SKOV3 cells xenografted in BALB/c nude mouse assessed as decrease in cell proliferation administered po for 24 days by Ki67 staining based assay; format: functional, organism-based
SK-OV-3 [27] = assay: Antitumor activity against human SKOV3 cells xenografted in BALB/c nude mouse assessed as TUNEL positive cells at 15 to 60 mg/kg/day, po for 24 days; format: functional, organism-based
PC-3 = assay: cells; details: Homo sapiens, PC-3, 72 h
LNCaP = assay: cells; details: Homo sapiens, 72 h
U-87 MG [28] = assay: cells; details: Homo sapiens, 72 h
SK-OV-3 [29] = assay: cells; details: Homo sapiens, SK-OV-3, 72 h
[30] = Half-life in Sprague-Dawley rat at 2 mg/kg, iv by LC-MS/MS analysis; details: in vivo
[31] = target: Phosphatidylinositol 4,5-bisphosphate 3-kinase catalytic subunit beta isoform (Homo sapiens, UniProt P42338); assay: Inhibition of PI3Kbeta (unknown origin) using PIP2 as substrate after 1 hr by ADP-Glo luminescence assay
Sequence of Phosphatidylinositol 4,5-bisphosphate 3-kinase catalytic subunit beta isoform (P42338 whole entry, canonical isoform): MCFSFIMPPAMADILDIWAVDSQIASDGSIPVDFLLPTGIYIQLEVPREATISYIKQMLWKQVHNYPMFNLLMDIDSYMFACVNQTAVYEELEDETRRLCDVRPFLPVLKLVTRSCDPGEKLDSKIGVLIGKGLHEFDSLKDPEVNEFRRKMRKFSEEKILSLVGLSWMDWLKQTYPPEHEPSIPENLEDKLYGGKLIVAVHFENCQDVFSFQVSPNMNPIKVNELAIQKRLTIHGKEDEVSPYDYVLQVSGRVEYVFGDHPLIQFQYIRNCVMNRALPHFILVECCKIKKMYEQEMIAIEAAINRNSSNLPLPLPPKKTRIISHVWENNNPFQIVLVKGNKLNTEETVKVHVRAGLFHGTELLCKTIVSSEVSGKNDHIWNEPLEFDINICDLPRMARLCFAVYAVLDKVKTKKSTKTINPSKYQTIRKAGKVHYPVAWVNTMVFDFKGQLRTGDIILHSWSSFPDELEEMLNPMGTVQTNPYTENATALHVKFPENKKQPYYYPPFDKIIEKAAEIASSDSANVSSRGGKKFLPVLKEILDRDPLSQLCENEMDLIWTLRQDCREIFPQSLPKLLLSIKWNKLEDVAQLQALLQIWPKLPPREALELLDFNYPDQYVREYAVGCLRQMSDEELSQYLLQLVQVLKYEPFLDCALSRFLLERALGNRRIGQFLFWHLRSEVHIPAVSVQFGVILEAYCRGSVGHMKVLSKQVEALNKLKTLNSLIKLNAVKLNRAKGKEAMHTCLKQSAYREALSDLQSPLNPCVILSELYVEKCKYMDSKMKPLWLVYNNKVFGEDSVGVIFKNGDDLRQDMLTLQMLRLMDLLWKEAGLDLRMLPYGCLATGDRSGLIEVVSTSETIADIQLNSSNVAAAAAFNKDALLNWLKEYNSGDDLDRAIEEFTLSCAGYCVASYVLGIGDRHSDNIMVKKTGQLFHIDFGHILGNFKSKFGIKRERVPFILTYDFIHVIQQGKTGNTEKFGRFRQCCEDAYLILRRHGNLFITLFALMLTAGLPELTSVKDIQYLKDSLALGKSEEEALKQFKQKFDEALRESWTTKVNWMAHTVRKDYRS

[32] = target: PI3-kinase p110-delta/p85-alpha (Homo sapiens, UniProt O00329); assay: Inhibition of recombinant full length human N-terminal His6-tagged PI3K p110delta/p85alpha expressed in baculovirus infected Sf21 cells using PIP2 as substrate after 2 hrs by kinase-glo luminescence assay
Sequence of PI3-kinase p110-delta/p85-alpha (P27986 whole entry): as the sequence (P27986 whole entry) above
Sequence of PI3-kinase p110-delta/p85-alpha (O00329 whole entry): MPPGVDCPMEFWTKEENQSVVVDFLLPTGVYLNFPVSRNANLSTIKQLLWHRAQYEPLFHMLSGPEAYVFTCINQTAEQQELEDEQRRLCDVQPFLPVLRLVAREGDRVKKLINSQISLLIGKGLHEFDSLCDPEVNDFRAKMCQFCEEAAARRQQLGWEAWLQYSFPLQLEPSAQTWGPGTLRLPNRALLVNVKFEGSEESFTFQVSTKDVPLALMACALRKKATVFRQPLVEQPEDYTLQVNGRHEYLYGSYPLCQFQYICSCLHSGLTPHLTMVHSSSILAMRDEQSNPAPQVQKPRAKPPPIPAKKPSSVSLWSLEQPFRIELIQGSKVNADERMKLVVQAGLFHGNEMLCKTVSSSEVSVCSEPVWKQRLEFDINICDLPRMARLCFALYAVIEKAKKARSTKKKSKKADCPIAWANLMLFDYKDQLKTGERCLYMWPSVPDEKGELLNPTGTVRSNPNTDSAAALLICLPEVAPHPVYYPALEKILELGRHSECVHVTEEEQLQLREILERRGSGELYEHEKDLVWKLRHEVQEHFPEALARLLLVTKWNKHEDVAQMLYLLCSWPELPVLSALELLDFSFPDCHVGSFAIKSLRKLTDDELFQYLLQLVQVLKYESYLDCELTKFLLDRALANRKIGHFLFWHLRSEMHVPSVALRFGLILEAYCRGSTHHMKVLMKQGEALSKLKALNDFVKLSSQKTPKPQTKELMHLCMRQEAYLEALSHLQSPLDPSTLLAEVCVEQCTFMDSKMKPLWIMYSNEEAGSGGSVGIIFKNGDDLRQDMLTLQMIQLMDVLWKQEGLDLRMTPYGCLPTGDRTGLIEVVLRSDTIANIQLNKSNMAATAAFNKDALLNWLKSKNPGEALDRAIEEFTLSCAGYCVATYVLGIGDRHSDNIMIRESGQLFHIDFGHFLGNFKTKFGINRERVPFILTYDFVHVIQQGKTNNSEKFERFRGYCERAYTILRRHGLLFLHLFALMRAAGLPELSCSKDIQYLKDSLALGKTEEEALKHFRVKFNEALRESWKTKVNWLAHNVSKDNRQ

Q: What does the source list for C[C@@H]1CN(c2nc(N3CCOCC3)c3sc(-c4ccn[nH]4)cc3n2)C[C@H](C)O1?
A: TGI (U-87 MG [1]): Dose-dependent effect; IC50 [2]: 15 nM; IC50 [3]: 16 nM; IC50 [4]: 75 nM; inhibition (Homo sapiens [5]): Dose-dependent effect; inhibition (Homo sapiens [6]): Dose-dependent effect; inhibition (Homo sapiens [7]): Dose-dependent effect; inhibition (Homo sapiens [8]): Dose-dependent effect; inhibition (Homo sapiens [9]): Dose-dependent effect; inhibition (Homo sapiens [10]): Dose-dependent effect; clearance [11]: 29 mL/min/kg; Vd [12]: 4.4 L/kg; Cmax [13]: 1400 nM; AUC [14]: 5.2 µM·h; bioavailability [15]: 41%; TGI (SK-OV-3 [16]): Dose-dependent effect; inhibition in vivo at 60 mg/kg/day (SK-OV-3 [17]): 89.6%; inhibition in vivo at 30 mg/kg/day (SK-OV-3 [18]): 75.9%; inhibition in vivo at 15 mg/kg/day (SK-OV-3 [19]): 48.5%; inhibition in vivo at 40 mg/kg/day (U-87 MG [20]): 81.2%; inhibition in vivo at 20 mg/kg/day (U-87 MG [21]): 69.2%; Activity (Mus musculus [22]): Non-Toxic; Activity (Mus musculus [23]): Non-Toxic; inhibition (Mus musculus [24]): Dose-dependent effect; inhibition (Mus musculus [25]): Dose-dependent effect; Activity (SK-OV-3 [26]): Dose-dependent effect; Activity (SK-OV-3 [27]): Active; IC50 (PC-3): 446 nM; IC50 (LNCaP): 210 nM; IC50 (U-87 MG [28]): 430 nM; IC50 (SK-OV-3 [29]): 504 nM; half-life [30]: 1.5 h; IC50 [31]: 175 nM; IC50 [32]: 10 nM
